Laboratory results: PMC6982167, “Development of an Improved Peroxidase-Based High-Throughput Screening for the Optimization of D-Glycerate Dehydratase Activity” (International Journal of Molecular Sciences, 2020)

Legend:
[1] = biological target: T1, SsDHAD (dihydroxyacid dehydratase from Sulfolobus solfataricus) (Saccharolobus solfataricus, UniProt Q97UB2); assay: discontinuous dehydration assay, pyruvate by HPLC; type: biochemical; conditions: supplied as D/L-glycerate 40 mM, pH 7.0, 50 °C, 60 min
T1 construct: gene ilvD; full-length synthetic gene in pET24a(+) via NdeI/XhoI, reverse primer carries stop codon (no tag); E. coli BL21(DE3); heat step 70 °C with 2-mercaptoethanol, desalted; iron-sulfur cluster
T1 sequence (Q97UB2 whole entry): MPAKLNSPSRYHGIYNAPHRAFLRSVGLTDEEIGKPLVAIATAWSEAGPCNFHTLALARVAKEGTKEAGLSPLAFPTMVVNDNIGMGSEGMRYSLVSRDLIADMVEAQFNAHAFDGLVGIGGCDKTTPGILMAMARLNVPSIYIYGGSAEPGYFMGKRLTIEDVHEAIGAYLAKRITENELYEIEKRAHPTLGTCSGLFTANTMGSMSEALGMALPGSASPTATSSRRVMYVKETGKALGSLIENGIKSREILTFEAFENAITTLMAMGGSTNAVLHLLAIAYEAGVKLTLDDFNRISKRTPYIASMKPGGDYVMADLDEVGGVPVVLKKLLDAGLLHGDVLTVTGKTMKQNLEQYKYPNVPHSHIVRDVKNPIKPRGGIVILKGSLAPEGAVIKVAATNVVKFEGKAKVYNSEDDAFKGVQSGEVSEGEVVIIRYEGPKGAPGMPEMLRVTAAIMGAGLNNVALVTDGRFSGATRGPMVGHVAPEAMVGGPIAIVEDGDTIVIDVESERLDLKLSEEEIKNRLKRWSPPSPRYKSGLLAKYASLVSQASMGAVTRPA

[2] = biological target: T1, SsDHAD (dihydroxyacid dehydratase from Sulfolobus solfataricus); assay: discontinuous dehydration assay, HPLC (2-keto-3-deoxygluconate); type: biochemical; conditions: 20 mM D-gluconate, 50 °C, 60 min

| Structure (SMILES) | specific activity [1] | specific activity [2] |
| --- | --- | --- |
| O=C(O)[C@H](O)CO [D-glycerate] | wildtype showed an activity for the dehydration of D-glycerate | – |
| O=C(O)[C@H](O)[C@@H](O)[C@H](O)[C@H](O)CO [D-gluconate] | – | we also tested the conversion of D-gluconate to 2-keto-deoxy gluconate |
